# In US7790697B2, “Compositions and methods for inhibiting the synthesis or expression of MMP-1” (Trustees of Dartmouth College, priority 2004, dated 2010):
# Tests used:
# [1] = test system: MDA-231 cells in type I collagen gel; assay: In vitro collagen gel destruction assay; type: cell-based; conditions: empty vector MDA-231 cells, 36 hours
# Method: In vitro Collagen Gel Destruction Assay. Collagen preparations were carried out on ice to prevent premature jelling. A solution of purified type I bovine collagen (Cohesion Technologies, Palo Alto, Calif.) was neutralized with a sterile 10× phosphate-buffered saline (pH 7.4), and 0.1 M NaOH. The solution of neutralized collagen (2 mg/mL) was mixed with an equivalent volume of cells suspended in serum free DMEM to yield a final concentration of 2×10^5 cells/mL in 1 mg/mL fibrillar collagen, and 1 mL of the collagen/cell mixture was added to each well of a six-well plate. After approximately 1 hour, the collagen jelled, and 1 mL of serum-free media was added on top of the gel. For some experiments, 25 μM ILOMASTAT® (CHEMICON®, Temecula, Calif.), 50 U/mL aprotinin (Sigma, St. Louis, Mo.), 1 μg/mL neutralizing MMP-1 antibody (MMP-1 ab-5; ONCOGENE™ Research Products, San Diego, Calif.), 1 μg/mL monoclonal FLAG® antibody (Sigma, St. Louis, Mo.), or 1% DMSO were added to the collagen before it jelled. After 36 hours of incubation at 37° C. the medium was removed from the top of collagen gels and weighed. The weight of media added at the start of the 37° C. incubation (1 gram) was subtracted from the total media weights to reveal the amount of media liberated by collagen gel destruction.
# An in vitro collagen destruction assay was developed to determine whether the MMP-1 levels in MDA-231 cells with the empty vector were functionally capable of degrading a collagen matrix, and whether the shRNA-mediated reduction in MMP-1 was sufficient to change the invasive behavior of the cells. MDA-231 cells harboring either the empty vector or the MMP-1 shRNA were embedded in a solution of type I collagen (1 mL). The collagen was allowed to solidify at 37° C., and 1 mL of serum-free medium was layered on top of each gel. After 36 hours at 37° C., the medium was removed from each well and photographs were taken. No collagen was visible in wells containing MDA-231 cells with the empty vector. […] The medium removed from each well was weighed to quantitate the amount of medium liberated as the gel was destroyed. After 36 hours, approximately 1 mL (0.8±0.06 grams) of medium was liberated from the collagen gels containing the MDA-231 cells with the empty vector. […] Conversely, no medium (−0.01±0.03 grams) was liberated from collagen gels containing MDA-231 cells producing the MMP-1 shRNA. The slight decrease in the volume of medium recovered may be due to evaporation of the medium during the incubation period.
# MMP-1 protein = assay: Western blot of MMP-1 protein in culture medium; type: cell-based, human; conditions: empty vector MDA-231 cells in collagen gel; 50 U/mL; 24 hours
# Method: Western Blot Analysis. MDA-231 cells were cultured in 1 mL serum-free DMEM/F12 medium in six-well plates in the presence or absence of a collagen gel, with or without aprotinin (50 U/mL; Sigma, St. Louis, Mo.). After 24 hours, medium was harvested, proteins precipitated with cold 10% trichloroacetic acid, and resuspended in 50 μL SDS loading buffer (PROMEGA®, Madison, Wis.). Following SDS-PAGE and transfer to a PVDF membrane (IMMOBILON™-P; MILLIPORE™, Bedford, Mass.), the membrane was incubated in a 5% milk, Tris-buffered saline solution with 0.1% TWEEN™ (milk TBST) for 1 hour. The membrane was probed with a MMP-1 polyclonal antibody (CHEMICON®, Temecula, Calif.) diluted 1:5000 in milk TBST overnight at 4° C. The membrane was washed three times with TBST, and a 1:2000 dilution of goat anti-rabbit horseradish peroxidase (HRP) conjugated antibody (CELL SIGNALING TECHNOLOGY®, Beverly, Mass.) in milk TBST was added for 60 minutes. The blot was washed three times with TBST, and HRP activity was detected with the WESTERN LIGHTNING® chemiluminescence reagent according to the manufacturer's instructions (PERKINELMER®, Boston, Mass.).
# The three MMPs primarily responsible for degrading type 1 collagen are MMP-1, MMP-13, and the membrane bound MT1-MMP (Stamenkovic (2003) J. Pathol. 200:448-64). […]
# MDA-231 cells = assay: Creation and subcloning of stable MDA-231 cell lines; type: cell-based; conditions: PSUPER-retro plasmid, G418 selection and subcloning
# Method: Transfection of NIH/3T3 and MDA-231 Cells. NIH/3T3 cells were transiently transfected with LIPOFECTAMINE™ 2000 (INVITROGEN™, Carlsbad, Calif.) along with 0.5 μg peGFP, 0.5 μg pCMV-MMP-1, and 2 μg PSUPER™-MMP-1 shRNA or PSUPER™ with no insert. Transfection efficiency was monitored using eGFP signal. Total cellular RNA was harvested 48 hours after transfection and analyzed for MMP-1 mRNA by real-time RT-PCR. MDA-231 cells were stably transfected in triplicate with LIPOFECTAMINE™ 2000 (INVITROGEN™, Carlsbad, Calif.) and 2 μg of the PSUPER™.Retro.Neo.GFP plasmid containing the MMP-1 shRNA, the scrambled sequence or just the empty vector. Stable cell lines were selected by growth in the presence of 1 mg/mL G418 (STRATAGENE®, La Jolla, Calif.). Individual, stable cell lines were isolated with cloning disks according to the manufacturer's instructions (PGC Scientifics, Frederick, Md.).
# Three groups of stable MDA-231 cell lines were created. One group contained only the PSUPER™-retro plasmid, a second group contained a PSUPER™-retro plasmid with the scrambled shRNA sequence, and the third contained a PSUPER™-retro plasmid with the MMP-1 shRNA oligonucleotide.
compound,measurement,setting,value
aprotinin [reference compound],medium liberated from collagen gels,[1]; 50 U/mL collagen embedded,0.01±0.1 grams
same,MMP-1 bands in medium / activation of proMMP-1 (western blot),MMP-1 protein,only the higher molecular weight zymogen band
"scrambled shRNA: Control shRNA with identical hairpin loop and linker, sequence not complementary to any human gene (SEQ ID NO:6) (AAGTGGAGGGACGTATGCA; the letters are possibly those of the target site)",growth and survival of stably transfected cells,MDA-231 cells,"did not grow well, and did not survive the subcloning procedures"
"CNC(=O)[C@H](Cc1c[nH]c2ccccc12)NC(=O)[C@@H](CC(=O)NO)CC(C)C [ILOMASTAT®, ILOMASTAT, reference compound]",medium liberated from collagen gels,[1]; 25 μM/gel inhibitor embedded,−0.1±0.08 grams
